Measurements from US20030073218A1, “High affinity inhibitors for target validation and uses thereof” (Princeton University, priority 1999, published 2003).
“Also recorded” adds a separate entry of the source. Read-outs that look alike come from different tables or passages of the source. Each block holds one compound with its values, some of them ahead of it.

Legend:
[1] = target: T1, GST-XD4 (Rous sarcoma virus subgroup A, UniProt P00524, DEL77-225); test: biochemical; format: biochemical; parameters: mutant of the v-Src catalytic domain, (the XD4 fragment) were made as glutathione S-transferase (GST) fusion proteins; made in house; host or cells: E. coli (DH5a), pGEX-KT
Procedure: (§1) Kinetic constants were determined by analysis of Lineweaver-Burk plots of the rate data (64).

[2] = target: T2, Cdc28-as1 · MBP-Clb2 (Saccharomyces cerevisiae, UniProt P00546, F88G); format: biochemical
T2 construct: made in house; host or cells: Sf9 insect cells, baculovirus, co-infected with Cak1-HA3 (Cdc28-as1-His6); bacteria (MBP-Clb2)
T2 sequence (P00546 whole entry F88G): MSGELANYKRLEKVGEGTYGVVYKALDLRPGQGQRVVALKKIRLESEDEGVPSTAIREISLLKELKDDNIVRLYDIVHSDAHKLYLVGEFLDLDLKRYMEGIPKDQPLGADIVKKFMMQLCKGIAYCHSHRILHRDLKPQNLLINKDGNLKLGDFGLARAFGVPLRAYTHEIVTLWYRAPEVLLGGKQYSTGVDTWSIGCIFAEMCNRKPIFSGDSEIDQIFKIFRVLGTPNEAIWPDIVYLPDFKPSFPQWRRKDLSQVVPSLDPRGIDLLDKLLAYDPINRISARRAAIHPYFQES
T2 sequence (P24869 whole entry, further chain): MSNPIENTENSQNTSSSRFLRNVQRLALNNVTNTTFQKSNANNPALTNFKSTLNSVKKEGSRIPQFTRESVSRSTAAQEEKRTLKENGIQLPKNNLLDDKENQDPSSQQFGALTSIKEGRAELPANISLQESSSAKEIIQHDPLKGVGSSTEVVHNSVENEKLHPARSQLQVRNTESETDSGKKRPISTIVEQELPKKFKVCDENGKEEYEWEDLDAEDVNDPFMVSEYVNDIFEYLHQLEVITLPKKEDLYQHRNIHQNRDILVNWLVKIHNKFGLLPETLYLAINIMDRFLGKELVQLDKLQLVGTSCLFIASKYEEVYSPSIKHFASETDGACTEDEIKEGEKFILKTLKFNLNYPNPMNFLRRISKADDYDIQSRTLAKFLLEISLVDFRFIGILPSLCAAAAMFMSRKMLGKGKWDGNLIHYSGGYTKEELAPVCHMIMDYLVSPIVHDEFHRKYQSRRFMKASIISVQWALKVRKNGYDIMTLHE

[3] = target: T1, GST-XD4; conditions: read-out: KM for protein substrate RR-Src at saturated nucleotide
[4] = target: T3, GST-XD4(V323A, I338A) (Rous sarcoma virus subgroup A, UniProt P00524, DEL77-225/I338A/V323A); format: biochemical
T3 construct: mutant of the v-Src catalytic domain, (the XD4 fragment) were made as glutathione S-transferase (GST) fusion proteins; made in house; host or cells: E. coli (DH5a), pGEX-KT
Procedure: as §1

[5] = target: T1, GST-XD4; test: Autophosphorylation with radiolabeled nucleotide (autoradiogram); format: biochemical; parameters: mutant of the v-Src catalytic domain, (the XD4 fragment) were made as glutathione S-transferase (GST) fusion proteins; made in house; host or cells: E. coli (DH5a), pGEX-KT; conditions: GST-XD4, FIG. 5C lane 3
Text: (§2) It is even more significant that the new substrate, [γ-^32P] […] FIG. 5C is an autoradiogram showing [γ-^32P]

[6] = system: GST-XD4(V323A, I338A); conditions: 100 μM analog, 10 μM [γ-32P] ATP
[7] = system: protein tyrosine kinase in murine lymphocyte cell lysate (CF); test: Screening of ATP analogs as kinase substrates in murine lymphocyte lysate (anti-phosphotyrosine immunoblot); format: biochemical; conditions: 100 uM nucleotide triphosphate, 37° C., 5 min
Procedure: Screening of Nucleotide Analogs: To identify compounds that would not be accepted as substrates by any existing cellular kinase (53), a panel of synthetic A*TP analogs were screened in a murine lymphocyte lysate (CF) rich in protein tyrosine kinase (13). The assays were performed using spleenocytes (8-30 week old male and female C57/B6 mice from the Princeton University Animal Facility) which were isolated and washed in RPMI-1640 medium containing 5% Bovine Calf Serum (BCS), 1% Hepes and DNAseI (1 μg/ml). Red cells were lysed at 4° C. by treatment with 17 mM tris ammonium chloride pH 7.2. The cells were hypotonically lysed on ice for 10 min. In 1 mM Hepes pH 7.4, 5 mM MgCl2, leupeptin (10 μg/ml), aprotinin (10 μg/ml) and 100 uM PMSF according to the method of Fukazawa et. al. (51). After vortexing and centrifuigation at 500 xg, the supernatant was collected. Cells were stored at 4° C. for 20 min. To attenuate the basal protein phosphorylation level, after which the buffer was adjusted to 20 mM Hepes pH 7.4, 10 mM MgCl2 and 1 mM NaF. Sodium vanadate (100 uM) was then added to inhibit the activity of phosphotyrosine phosphatases.
Each nucleotide triphosphate was added to a final concentration of 100 uM to 5×10^6 cell equivalents and incubated at 37° C. for 5 min. after which 4X Laemmli gel loading buffer was added to the cell lysate to quench the reaction. Proteins were separated by 12.5% SDS-PAGE and transferred to Protran BA85 (Schleicher-Schuell). The blot was probed with the anti-phosphotyrosine monoclonal antibody 4G10 (Upstate Biotechnology) and the bound antibody was detected via enhanced chemiluminescence (cat. 34080, Pierce) following treatment with HRP- coupled goat-anti-mouse antibody (VWR cat. 7101332) according to the manufacturer's instructions.
The cell lysate used includes the protein tyrosine kinase Src, Fyn, Lck, Lyn, Yes, Fgr, Hck, Zap, Syk, Btk, Blk, and other protein tyrosine kinase present in B and T lymphocytes, macrophages, and follicular dendritic cells (13). Molecular size standards (in kilodaltons) are indicated.

[8] = target: T3, GST-XD4(V323A, I338A); test: Autophosphorylation with radiolabeled nucleotide (autoradiogram); format: biochemical; conditions: FIG. 5C lane 4
Text: as §2

[9] = system: wild-type cellular kinase in murine lymphocyte lysates; test: In vitro kinase reactions with radiolabeled nucleotide in murine lymphocyte lysates; format: biochemical; conditions: 100 μM radiolabeled nucleotide, 37° C., 10 min
Procedure: For this it is preferably that no wild-type kinase, including ser/thr specific kinase (which carry out the bulk of cellular phosphorylation, as only 0.03% of all phosphoamino acids are tyrosine) (65), substantially accept the synthetic substrate. To establish that [γ-^32P]
These assays were performed in a manner similar to the procedure set forth in Example 2, with the exception of the use of radiolabeled [γ-^32P] […] Proteins were separate by 12.5% SDS-PAGE. The gel was soaked in 10% acetic acid, 10% isopropanol for 1 h. after which it was dried in a gel dryer and exposed to Biomax MS film (Kodak # 111-1681) for 1 h.

[10] = target: wild-type Fyn (Homo sapiens, UniProt P06241); test: Peptide phosphorylation assay, screening of inhibitors orthogonal to wild-type kinases; format: biochemical; conditions: read-out: IC50 for inhibition of wild-type Fyn
wild-type Fyn, sequence (P06241 1-534 isoform P06241-2, species assumed): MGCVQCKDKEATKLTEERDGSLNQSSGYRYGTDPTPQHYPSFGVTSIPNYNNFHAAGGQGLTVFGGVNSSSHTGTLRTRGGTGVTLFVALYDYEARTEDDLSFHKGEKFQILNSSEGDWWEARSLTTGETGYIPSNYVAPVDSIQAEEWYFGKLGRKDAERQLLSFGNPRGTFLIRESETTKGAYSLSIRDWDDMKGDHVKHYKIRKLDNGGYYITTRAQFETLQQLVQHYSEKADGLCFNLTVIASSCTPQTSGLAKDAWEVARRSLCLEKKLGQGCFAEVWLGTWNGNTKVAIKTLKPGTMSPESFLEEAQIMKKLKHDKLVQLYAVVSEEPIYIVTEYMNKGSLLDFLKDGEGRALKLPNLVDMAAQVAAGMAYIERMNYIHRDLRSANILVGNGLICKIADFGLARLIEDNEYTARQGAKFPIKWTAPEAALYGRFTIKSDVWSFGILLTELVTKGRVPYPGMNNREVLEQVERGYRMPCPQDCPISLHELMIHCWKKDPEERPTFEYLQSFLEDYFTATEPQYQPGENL
Text: Screening of inhibitors which are orthogonal to wild-type kinases: To identify compounds that would not inhibit any existing cellular kinases, the panel of synthetic pyrazolo pyrimidine analogs (1-6) (FIG. 10) were screened against two closely related purified protein tyrosine kinases, v-Src and Fyn, in a peptide phosphorylation assay using [γ-^32P]

[11] = target: T4, PKCd (Homo sapiens, UniProt Q05655); test: In Vitro Kinase Inhibition Assay; format: biochemical; conditions: at concentrations up to 300 mM
T4 construct: 6-His; made in house; host or cells: Bac-to-Bac baculovirus expression system (pFastBac B vector)
T4 sequence (Q05655 whole entry, species assumed): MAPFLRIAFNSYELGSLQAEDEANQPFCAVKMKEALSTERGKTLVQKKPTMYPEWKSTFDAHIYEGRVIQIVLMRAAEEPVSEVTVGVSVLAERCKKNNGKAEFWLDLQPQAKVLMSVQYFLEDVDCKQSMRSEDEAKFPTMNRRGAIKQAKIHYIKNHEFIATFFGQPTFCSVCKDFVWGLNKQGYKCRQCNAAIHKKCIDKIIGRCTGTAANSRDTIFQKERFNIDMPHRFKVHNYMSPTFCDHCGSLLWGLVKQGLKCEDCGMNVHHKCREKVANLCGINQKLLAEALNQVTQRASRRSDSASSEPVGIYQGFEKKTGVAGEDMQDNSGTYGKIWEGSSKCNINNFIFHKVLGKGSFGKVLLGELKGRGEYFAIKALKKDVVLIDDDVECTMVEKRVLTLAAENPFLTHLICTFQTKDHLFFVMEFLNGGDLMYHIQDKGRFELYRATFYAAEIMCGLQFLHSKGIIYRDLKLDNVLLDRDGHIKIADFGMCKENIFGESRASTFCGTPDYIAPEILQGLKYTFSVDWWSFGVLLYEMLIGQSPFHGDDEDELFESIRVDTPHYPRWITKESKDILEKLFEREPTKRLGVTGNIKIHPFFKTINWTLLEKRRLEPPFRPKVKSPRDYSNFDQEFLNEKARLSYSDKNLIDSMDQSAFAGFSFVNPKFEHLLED

[12] = system: B cell receptor (BCR) mediated phosphorylation cascade in murine B cells; test: Murine B Cell Assay (phosphotyrosine blot after anti-IgM stimulation); format: cell-based; parameters: dose or concentration left out as unconfirmed; conditions: 30 minutes, anti-IgM cross linked murine B cells
Procedure: Murine B Cell Assay: Splenic lymphocytes were isolated from 6-20 week old Balb/c or C57/B6 mice. The cells were washed out of the spleen into RPMI media containing 1 mg/mL DNase in and the red blood cells were lysed in 17 mM tris-ammonium chloride, pH 7.2, Approximately 4×10^6 cells were incubated at 37° C. for 30 minutes with […] of 3 g or 2 in 1.1% DMSO. B cell stimulation was initiated by the addition of 2 mg of goat anti-mouse IgM (Jackson Immuno Research, cat# 115-005-075) and subsequent incubation for 5 minutes at 37(C. The cells were isolated by centrifugation (13,000 rpm, 2 min) and lysed (lysis buffer: 1% Triton X-100, 50 mM tris pH 7.4, 2 mM EDTA, 150 mM NaCl, […] PMSF, 2 mM sodium orthovanadate, 10 mg/mL leupeptin, 10 mg/mL apoprotin). The cellular debris was then pelleted at 13,000 rpm for 15 min. Cellular proteins were separated by 10% polyacrylamide gel electrophoresis and transferred to a nitrocellulose membrane by Western blotting. Phosphotyrosine containing proteins were visualized by immunoblotting with anti-phosphotyrosine antibody (Upstate Biotechnology, Inc.).

[13] = target: T5, I338G v-Src (Rous sarcoma virus subgroup A, UniProt P00524, DEL77-225/I338G); test: biochemical; format: biochemical
T5 construct: screened against the catalytic domain of the target kinase, I338G v-Src; made in house; host or cells: E. coli DH5a, pGEX-KT

[14] = system: WT v-Src transformed NIH3T3 cells; test: Inhibition of v-Src in NIH3T3 fibroblasts (phosphotyrosine blot); format: cell-based, murine; conditions: 100 mM 3g, 12 hours
Procedure: Tyrosine phosphorylated proteins were visualized as in FIG. 20A.
Retroviral Infection of NIH 3T3 Fibroblasts: Genes encoding WT and I338G v-Src were transfected into a packaging cell line and NIH 3T3 fibroblasts were retrovirally infected using the pBabe retroviral vector and a puromycin ([…]) selectable marker as described (Shah, K., Liu, Y., Shokat, K. M., in preparation). WT and I338G v-Src transformed cells were cultured in DMEM/10% BCS containing […] puromycin).
After 12 hours, the cells were washed with PBS and lysed (lysis buffer: 1% Triton X-100, 50 mM tris pH 7.4, 2 mM EDTA, 150 mM NaCl, […], 2 mM sodium orthovanadate, 10 mg/mL leupeptin, 10 mg/mL apoprotin). The lysate was clarified by centrifugation at 13,000 rpm for 15 min. Lysate protein concentrations were normalized and equal volumes of the lysate were resolved electrophoretically and analyzed for phosphotyrosine content as described above.

[15] = system: I338G v-Src transformed NIH3T3 fibroblasts; test: Microscopy of cell morphology and polymerized actin; format: cell-based, murine; conditions: 100 mM 3g, 48 hours
Procedure: FIG. 21A show non-transformed NIH3T3 cells.
Microscopy: Non-transformed, WT v-Src transformed, and 1338G v-Src transformed NIH3T3 fibroblasts were grown in DMEM/10% BCS on tissue culture treated slides. V-Src expressing cells were treated with either 1.1% DMSO or […] 3g in 1.1% DMSO. After 48 hours cells were photographed at 400(magnification on an Nikon TMS light microscope. Immediately following light microscopy, the cells were fixed for 20 min in 3.7% formaldehyde/PBS and permeabilized for 60 sec in 0.2% Triton X-100(/PBS. Permeabilized cells were incubated with 200 ng/mL phalloidin-FITC/PBS for 20 min. Slides were rinsed with PBS and polymerized actin was visualized by fluorescence microscopy at 600( magnification on a Zeiss fluorescence microscope.

[16] = target: T6, PKA (Homo sapiens, UniProt P17612); test: In Vitro Kinase Inhibition Assay; format: biochemical; conditions: at concentrations up to 300 mM
T6 construct: purchased Pierce
Text: PKA was purchased (Pierce) and used without further purification.

[17] = GST-XD4, 1 mM RR-Src, 37° C., pH 8.0

SMILES: Nc1ncnc2c1ncn2[C@@H]1O[C@H](COP(=O)(O)OP(=O)(O)OP(=O)(O)O)[C@@H](O)[C@H]1O [ATP, adenosine triphosphate]
Km [1, 17]: 12 ± 3 µM
kcat [1, 17]: 0.033 ± 0.0083 s⁻¹
reduction in binding affinity for ATP relative to wild-type Cdc28 [2]: 10 fold
reduction in maximum ATP turnover rate relative to wild-type Cdc28 [2]: 6 fold
Km [3]: 2600 ± 900 µM

SMILES: O=P(O)(O)OP(=O)(O)OP(=O)(O)OC[C@H]1O[C@@H](n2cnc3c(NC4CCCC4)ncnc32)[C@H](O)[C@@H]1O [ATP analog 8, N^6(cyclopentyl)ATP]
Ki [1]: 2000 µM
phosphorylation of RR-Src peptide with the nucleotide as phosphate donor ([1]; wild-type GST-XD4): did not substantially phosphorylate the RR-Src peptiide
phosphorylation of RR-Src peptide with the nucleotide as phosphate donor [4]: displayed Michaelis-Menten kinetics
use as phosphodonor for autophosphorylation [5]: apparent complete inability of GST-XD4 to use this analog as a phosphodonor for autophosphorylation
inhibition of GST-XD4(V323A, I338A) catalyzed RR-Src phosphorylation [6]: almost as well as the wild-type kinase, GST-XD4, is inhibited by its natural substrate ATP
ability to serve as cellular protein tyrosine kinase substrate (level of protein tyrosine phosphorylation) [7]: slightly lower level of phosphorylation with wild-type kinase
use as phosphodonor for autophosphorylation [8]: efficiently autophosphorylated
radiolabeled phosphoproteins in cell lysate [9]: no radiolabeled phosphoproteins in the cell lysate

IC50 [10]: > 400 µM
SMILES: CC(C)(C)n1nc(-c2ccccc2)c2c(NC(=O)c3ccccc3)ncnc21 [Compound 3e, 4-benzamido-1-tert-butyl-3-phenylpyrazolo[3,4-d]pyrimidine]

SMILES: CC(C)(C)c1ccc(C(=O)Nc2ncnc3c2c(-c2ccccc2)nn3C(C)(C)C)cc1 [Compound 3g, 4-(p-tert-butyl)benzamido-1-tert-butyl-3-phenylpyrazolo[3,4-d]pyrimidine]
inhibition of PKCd [11]: not detectably inhibited
phosphotyrosine pattern of B cell stimulation [12]: no effect on the phosphotyrosine pattern of B cell stimulation
mode of inhibition of I338G v-Src ([13]; Lineweaver-Burk analysis): competitively with respect to ATP
Ki ([13]; Lineweaver-Burk analysis at various ATP concentrations, read-out: inhibitory constant (Ki), I338G v-Src): ~0.4 µM
tyrosine phosphorylation [14]: but not WT v-Src transformed NIH3T3 fibroblasts; also recorded: causes no loss of tyrosine phosphorylation
cell morphology and polymerized actin [15]: appeared flat and did not exhibit growth characteristics of transformed cells; also recorded: have defined polymerized actin strings
inhibition of PKA [16]: not detectably inhibited
